Test results reported in patent publication US9410152B2, “Use of microrna molecules to influence skin pigmentation” (CHANEL PARFUMS BEAUTE, priority 2011, dated 2016).
“Also recorded” adds a separate entry of the source.

Columns and labels:
Format in all cases: cell-based, human
mRNA TYR = assay: qRT-PCR mRNA expression of TYR; details: MNT-1 cells, 50 nM mimetic, day 12, relative to cel-miR-239b, ΔΔCt
Procedure: 4×10^5 MNT-1 cells were seeded per well in a 6-well plate (#353046, Falcon) on day-1. On day 0, the cells were transfected with 50 nM of mimetic of the miRNAs (hsa-mir-137 # C-300604-07-005, hsa-mir-7 # C-300547-05-0005, hsa-mir-330-5p # C-301082-01-0005, negative control # NC-002000-01-05, Dharmacon), using 5 μL of Lipofectamine 2000 (#1668-019, Invitrogen). On day 1, the medium was changed. On day 3, the cells were trypsinized and seeded at 4×10^5 cells per well. On day 4, the cells were transfected again with 50 nM of mimetic of the miRNAs (see day 0). On day 5, the medium was changed. On day 7, the cells were trypsinized and seeded at 4×10^5 cells per well. On day 8, the cells were transfected with 50 nM of mimetic of the miRNAs (see day 0). On day 9, the medium was changed. On day 10, the cells were trypsinized and divided into two (from one by six wells to two by six wells). On day 12, one six-well plate was used for lysis of the RNA and the other for lysis of the proteins. As positive control of depigmentation, MNT-1 cells were incubated with 3.5 mM of kojic acid (Sigma K3125-5G) for 12 days. The cells were distributed as described and the kojic acid was renewed with the medium every 4 days. The percentage inhibition of the kojic acid is of the order of 10%. 700 μL of Qiazol lysis buffer (Qiagen) was added per well of a six-well dish after washing the cells twice with PBS. The total RNA was isolated using the miRNeasy Mini kit (Qiagen) according to the manufacturer's protocol. The total RNA was eluted in 30 μl of water without RNAse. The concentration of RNA was measured using the NanoVue spectrophotometer (GE Healthcare). 1 μg of total RNA was reverse-transcribed using the MLV RT-Enzyme system (Invitrogen) in 60 μL of reaction to produce the corresponding cDNA. Real-time PCR was performed using the IQTM SYBR® Green supermix (Biorad) (final reaction volume of 25 μL: 23 μL of Mix Master and 2 μL of cDNA). The thermocycling conditions ([…], Biorad) were as follows: 95° C. for 90 s, and 40 cycles at 95° C. for 30 s, 60° C. for 60 s and 95° C. for 10 s. The concentrations of primers and the sequences are given in Table 5 below: The relative quantity was evaluated using the ΔΔCt comparative method. Briefly, this method compares the quantity of expression of the target gene relative to an endogenous control TBP, within a sample for normalizing the expression. Within a group of samples, a suitable sample is selected as the calibrator sample ([…]). Each sample is then compared with a designated reference to give the relative expression of the target gene relative to this reference sample.

MNT-1 cells [1] = assay: Overall pigmentation levels (photographs of protein lysates on day 12); details: 50 nM mimetic, 12 days, relative to negative control, photographs not shown
Procedure: 4×10^5 MNT-1 cells were seeded per well in a 6-well plate (#353046, Falcon) on day-1. On day 0, the cells were transfected with 50 nM of mimetic of the miRNAs (hsa-mir-137 # C-300604-07-005, hsa-mir-7 # C-300547-05-0005, hsa-mir-330-5p # C-301082-01-0005, negative control # NC-002000-01-05, Dharmacon), using 5 μL of Lipofectamine 2000 (#1668-019, Invitrogen). On day 1, the medium was changed. On day 3, the cells were trypsinized and seeded at 4×10^5 cells per well. On day 4, the cells were transfected again with 50 nM of mimetic of the miRNAs (see day 0). On day 5, the medium was changed. On day 7, the cells were trypsinized and seeded at 4×10^5 cells per well. On day 8, the cells were transfected with 50 nM of mimetic of the miRNAs (see day 0). On day 9, the medium was changed. On day 10, the cells were trypsinized and divided into two (from one by six wells to two by six wells). On day 12, one six-well plate was used for lysis of the RNA and the other for lysis of the proteins. As positive control of depigmentation, MNT-1 cells were incubated with 3.5 mM of kojic acid (Sigma K3125-5G) for 12 days. The cells were distributed as described and the kojic acid was renewed with the medium every 4 days. The percentage inhibition of the kojic acid is of the order of 10%. […] The XB2 keratinocytes serve as control for the unpigmented cells. […] As positive control of depigmentation, the MNT-1 cells were treated with kojic acid.

MNT-1 cells [2] = assay: Measurement of the relative melanin concentration (absorbance at 470 nm of protein lysates); details: 50 nM mimetic, day 12, relative to transfection control cel-miR-239b (miCtrl), normalized to protein
Procedure: 4×10^5 MNT-1 cells were seeded per well in a 6-well plate (#353046, Falcon) on day-1. On day 0, the cells were transfected with 50 nM of mimetic of the miRNAs (hsa-mir-137 # C-300604-07-005, hsa-mir-7 # C-300547-05-0005, hsa-mir-330-5p # C-301082-01-0005, negative control # NC-002000-01-05, Dharmacon), using 5 μL of Lipofectamine 2000 (#1668-019, Invitrogen). On day 1, the medium was changed. On day 3, the cells were trypsinized and seeded at 4×10^5 cells per well. On day 4, the cells were transfected again with 50 nM of mimetic of the miRNAs (see day 0). On day 5, the medium was changed. On day 7, the cells were trypsinized and seeded at 4×10^5 cells per well. On day 8, the cells were transfected with 50 nM of mimetic of the miRNAs (see day 0). On day 9, the medium was changed. On day 10, the cells were trypsinized and divided into two (from one by six wells to two by six wells). On day 12, one six-well plate was used for lysis of the RNA and the other for lysis of the proteins. As positive control of depigmentation, MNT-1 cells were incubated with 3.5 mM of kojic acid (Sigma K3125-5G) for 12 days. The cells were distributed as described and the kojic acid was renewed with the medium every 4 days. The percentage inhibition of the kojic acid is of the order of 10%.
On day 12, the cells were washed in PBS twice and lysed in 75 μL/well of a 6-well dish of lysis buffer for the RIPA proteins. The protein lysates were transferred to 1.5-ml Eppendorf tubes and vortexed lightly to homogenize the solution before putting the tube on ice or for storage at −80° C. 2 μL of protein lysate was used for measuring the absorbance of the melanin at 470 nm using the NanoVue spectrophotometer (GE Healthcare). The protein lysate of the unpigmented XB2 keratinocytes was used as calibrator sample (reference=0). To detect the relative quantity of melanin, all the samples were compared with the transfection control sample (miCtrl). The absorbance at 470 nm of the sample miCtrl was fixed at 1 as reference. In addition, the melanin absorption at 470 nm was normalized taking into account the concentration of proteins of each sample relative to miCtrl.

| Substance | levels of mRNA TYR (mRNA TYR) | levels of mRNA TYR (mRNA TYR; listed as miR-7) | overall pigmentation levels (MNT-1 cells [1]) | overall pigmentation levels (MNT-1 cells [1]; listed as miR-7) | relative levels of melanin (absorbance at 470 nm) (MNT-1 cells [2]) |
| --- | --- | --- | --- | --- | --- |
| hsa-miR-7: mimetic of miRNA hsa-mir-7 (Dharmacon C-300547-05-0005); mature hsa-miR-7-5p sequence SEQ ID NO: 2 (UGGAAGACUAGUGAUUUUGUUGU; commercial mimic, chemistry not given here; listed as Homo sapiens) | decreased | appears to reduce | do not show a significant reduction | do not show any significant effect | slight increase |
| hsa-miR-137: mimetic of miRNA hsa-mir-137 (Dharmacon C-300604-07-005); mature sequence SEQ ID NO: 3 (UUAUUGCUUAAGAAUACGCGUAG; commercial mimic, chemistry not given here; listed as Homo sapiens) | decreased; also recorded: significantly reduced |  | significant reduction |  | reduction; also recorded: decrease in melanin |
| hsa-miR-330-5p: mimetic of miRNA hsa-mir-330-5p (Dharmacon C-301082-01-0005); mature sequence 5'-UCUCUGGGCCUGUGUCUUAGGC-3' (SEQ ID NO: 1) (UCUCUGGGCCUGUGUCUUAGGC; mimic duplex, passenger strand not given here; listed as Homo sapiens) | decreased; also recorded: appears to reduce |  | significant reduction |  | reduction; also recorded: decrease in melanin |
